According to patent US6918445B2, “Methods and compositions for treating subterranean zones using environmentally safe polymer breakers” (Halliburton Energy Services, Inc., priority 2003, dated 2005):

Experiment: Sodium perborate tetrahydrate solubility tests in fresh water
Assay type: physicochemical
Conditions: density 8.33 pounds per gallon, 75° F., with mixing; for Amount Dissolved (solubility of sodium perborate tetrahydrate in water): 10% by weight of water was a pass/fail target, not the maximum solubility
Protocol: Sodium perborate tetrahydrate solubility tests in fresh water having a density of 8.33 pounds per gallon were conducted. […] The sodium borate tetrahydrate-complex or ester forming compound mixtures all contained a molar ratio of sodium perborate tetrahydrate to the complex or ester forming compound of 1:2, and the mixtures were added to the water in amounts whereby the sodium perborate tetrahydrate was present in an amount of 10% by weight of the water.

SMILES: O.O.O.O.[Na+].[O-]B1OO1 [Sodium Perborate Tetrahydrate]
- Amount Dissolved (solubility of sodium perborate tetrahydrate in water): 2.5% by weight of water
- Amount Dissolved (solubility of sodium perborate tetrahydrate in water) (listed as sodium perborate tetrahydrate): 2.5 % by weight of water
- Time Required (time to dissolve the stated amount): <15 min
